Measured values published in patent US20130046098A1, “KINASE INHIBITORS” (THE UNIVERSITY OF MANCHESTER, priority 2009, published 2013).
“Also recorded” adds a separate entry of the source.

Assays:
[1] = tested on: GEF16 transfected NIH3T3 cells; assay: Cell proliferation assay (Celltiter Aq96); assay type: cell-based, mouse; details: 10 μM, Cell AQ96 absorbance at 6, 8 and 10 days
Description: FIG. 1D is a bar chart showing the results of Cell AQ^96 assessment of the growth of GEF16 and vector transfected cells seeded in a 96 well plate at 1×10^3 cells per well. These were incubated for 3 days followed by addition of reagent to determine the starting point for the assay. 10 μM of either Y27632 or DMSO were then added to wells containing both cell types and Cell AQ^96 absorbance measured at 6, 8 and 10 days. At day 3 cells were 100% confluent which was determined by phase contrast visual inspection of the cultures at ×20 magnification;
Cell proliferation was investigated using Celltiter Aq^96 reagent (Promega, Southampton, UK) according to the manufacturer's protocol. Cells were seeded into a 96-well plate at a density of 1×10^3 cells/well allowing 3 wells per data point and allowed to attach for a set period. Following this, the initial starting point 490 nm absorbance was determined by adding 20 μl of Aq^96 reagent to each well and incubating for 4 h at 37° C. in 5% CO2 (96-well plate reader, Dynex Technologies, West Sussex, UK). The various compounds (Y27632 or compounds of the invention) or DMSO control were then added to duplicate wells and the absorbance determined in the same way at the time points indicated. Each data set shown is representative of three separate experiments.

PKC epsilon = molecular target: T1, PKC epsilon (Homo sapiens, UniProt Q02156); details: 10 μM; cited from earlier work
T1 sequence (Q02156 1-737): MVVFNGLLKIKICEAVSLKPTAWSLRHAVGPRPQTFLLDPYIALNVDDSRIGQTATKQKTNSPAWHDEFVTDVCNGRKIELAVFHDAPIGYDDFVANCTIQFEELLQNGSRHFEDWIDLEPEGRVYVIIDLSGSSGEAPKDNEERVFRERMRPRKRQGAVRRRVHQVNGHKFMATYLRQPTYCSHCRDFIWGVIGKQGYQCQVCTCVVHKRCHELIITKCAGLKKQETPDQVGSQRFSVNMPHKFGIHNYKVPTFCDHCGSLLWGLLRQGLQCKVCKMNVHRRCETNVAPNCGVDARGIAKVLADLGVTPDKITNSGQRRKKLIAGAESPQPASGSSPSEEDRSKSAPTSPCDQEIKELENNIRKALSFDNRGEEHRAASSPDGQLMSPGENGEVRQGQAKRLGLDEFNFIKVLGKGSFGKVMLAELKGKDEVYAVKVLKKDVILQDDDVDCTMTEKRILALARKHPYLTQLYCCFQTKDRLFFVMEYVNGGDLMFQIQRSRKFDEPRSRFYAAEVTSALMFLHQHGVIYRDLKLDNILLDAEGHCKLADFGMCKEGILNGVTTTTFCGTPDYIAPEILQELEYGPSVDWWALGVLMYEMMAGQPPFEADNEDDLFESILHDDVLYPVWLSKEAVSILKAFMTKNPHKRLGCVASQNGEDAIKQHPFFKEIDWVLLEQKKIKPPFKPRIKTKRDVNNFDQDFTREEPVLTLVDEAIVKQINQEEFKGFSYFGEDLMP

[2] = tested on: polyclonal GEF16 transfected NIH3T3 cells; assay: Transformed colony forming assay (Toluidine blue)
Description: Following this incubation period the compound was then removed from the culture media and cells maintained in normal growth media for a further 10 days before the photographs shown were taken.
In FIG. 4A polyclonal GEF16 transfected cells were seeded at 2.0×10^5 cells per 30 mm dish and incubated over night. […] After a further 10 days culture in the absence of inhibitors the cells were stained with Toluidine blue and photographed to produce the images shown. […] These were incubated for 3 or 6 days then stained with Toluidine blue before being photographed.
Medium (containing the compound of interest—either Y27632 or the selected compounds of the invention—or DMSO control) was changed every 2 days. Formation of foci was analysed by Toluidine blue (Sigma-Aldrich, Poole, UK) staining after 10 days growth post confluence. […] Each assay was carried out in triplicate and the results shown are representative of at least three separate experiments.

[3] = tested on: single transformed colony derived GEF16 NIH3T3 cells; assay: Growth of cell populations derived from single GEF16 transformed colonies; assay type: cell-based, mouse; details: FIG. 5A
Description: FIG. 5 illustrates that the growth suppressive effects of YA1 on single transformed colony derived GEF16 NIH3T3 cells and polyclonal Ras transformed NIH3T3 cells are more pronounced when these are co-cultured with non-transformed cells. In FIG. 5A single transformed colonies were picked from 10 day cultures of GEF16 polyclonal NIH3T3 cells and expanded. These cells were then seeded at 2.0×10^5 cells per 30 mm dish and treated with 10 μM of YA1 or DMSO control either immediately or following 10 days in culture. Duplicate wells were harvested for flow cytometry. In FIG. 5B a total of 2×10^5 cells per well were plated consisting of increasing numbers of non-transformed vector cells co-cultured with decreasing numbers of single transformed colony derived GEF16 cells. These were treated with 10 μM of either YA1 or DMSO for 10 days. In producing the results shown in FIG. 5C the same co-culture experiment described in connection with FIG. 5B was carried out substituting polyclonal Ras transformed NIH3T3 cells for GEF16 transformed cells.
Single transformed colonies were picked from GEF16 polyclonal NIH3T3 cells and expanded according to the methods described above. Expanded cell populations were plated and a compound of the invention (YA1) added either immediately or after 10 days when the cells were post-confluent.

ROCK2 = ROCK2 (Homo sapiens, UniProt O75116); assay: SelectScreen additional single point analysis; details: 10 μM
p38 alpha (MAPK14) = p38 alpha (MAPK14) (Homo sapiens, UniProt Q16539); assay: SelectScreen in vitro kinase profiling, single point; details: additional single point analysis, 10 μM
recombinant ROCK = assay: In vitro ROCK activity assay (Cyclex Rho-kinase immunoassay); assay type: biochemical; details: FIG. 2A bar chart
Description: A specific assay was used to evaluate the ability of the compounds of the invention to inhibit ROCK. Rho-kinase activity was determined using an immunoassay as recommended by the manufacturer (Cyclex Co., Ltd., Nagano, Japan). Briefly, […] samples containing 10 mUnit (1 Unit incorporates 1 nmol of phosphate into GST-MBS/MYPT1 per minute at 30° C.) of recombinant ROCK with or without the compounds of the invention were aliquoted into a 96-well plate (100 μl/well), pre-coated with threonine Rho-kinase phosphorylation substrate. After 30 min incubation at 30° C., the plate was washed three times with PBS then incubated with 100 μl/well of HRP conjugated anti-phospho-specific antibody for 1 h at room temperature. The amount of phosphorylated substrate was determined by adding 100 μl/well of substrate reagent for 10 min and the reaction was terminated by adding 100 μl/well of the stop solution. The absorbance was measured on a 96-well plate reader at 450 nm (Dynex Technologies, West Sussex, UK). Each data point was performed in triplicate and the assay was repeated twice.

Aurora A = molecular target: T2, Aurora A (Homo sapiens, UniProt O14965); assay: SelectScreen in vitro kinase profiling, single point; details: additional single point analysis, 10 μM
T2 sequence (O14965 1-403): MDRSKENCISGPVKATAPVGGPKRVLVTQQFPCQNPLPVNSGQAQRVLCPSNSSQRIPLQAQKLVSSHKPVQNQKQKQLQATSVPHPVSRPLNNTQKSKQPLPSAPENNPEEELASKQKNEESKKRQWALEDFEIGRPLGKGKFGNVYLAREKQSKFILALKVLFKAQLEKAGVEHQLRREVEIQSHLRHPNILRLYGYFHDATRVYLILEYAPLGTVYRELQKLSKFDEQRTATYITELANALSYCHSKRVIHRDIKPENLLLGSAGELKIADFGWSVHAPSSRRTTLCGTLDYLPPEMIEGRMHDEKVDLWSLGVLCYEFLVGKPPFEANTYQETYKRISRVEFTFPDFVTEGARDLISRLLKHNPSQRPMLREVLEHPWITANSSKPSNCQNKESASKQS

ROCK1 = ROCK1 (Homo sapiens, UniProt Q13464); assay: SelectScreen additional single point analysis; details: 10 μM
HGK (MAP4K4) = HGK (MAP4K4) (Homo sapiens, UniProt O95819); assay: SelectScreen in vitro kinase profiling, single point; details: additional single point analysis, 10 μM
Sequence of HGK (MAP4K4) (O95819 whole entry): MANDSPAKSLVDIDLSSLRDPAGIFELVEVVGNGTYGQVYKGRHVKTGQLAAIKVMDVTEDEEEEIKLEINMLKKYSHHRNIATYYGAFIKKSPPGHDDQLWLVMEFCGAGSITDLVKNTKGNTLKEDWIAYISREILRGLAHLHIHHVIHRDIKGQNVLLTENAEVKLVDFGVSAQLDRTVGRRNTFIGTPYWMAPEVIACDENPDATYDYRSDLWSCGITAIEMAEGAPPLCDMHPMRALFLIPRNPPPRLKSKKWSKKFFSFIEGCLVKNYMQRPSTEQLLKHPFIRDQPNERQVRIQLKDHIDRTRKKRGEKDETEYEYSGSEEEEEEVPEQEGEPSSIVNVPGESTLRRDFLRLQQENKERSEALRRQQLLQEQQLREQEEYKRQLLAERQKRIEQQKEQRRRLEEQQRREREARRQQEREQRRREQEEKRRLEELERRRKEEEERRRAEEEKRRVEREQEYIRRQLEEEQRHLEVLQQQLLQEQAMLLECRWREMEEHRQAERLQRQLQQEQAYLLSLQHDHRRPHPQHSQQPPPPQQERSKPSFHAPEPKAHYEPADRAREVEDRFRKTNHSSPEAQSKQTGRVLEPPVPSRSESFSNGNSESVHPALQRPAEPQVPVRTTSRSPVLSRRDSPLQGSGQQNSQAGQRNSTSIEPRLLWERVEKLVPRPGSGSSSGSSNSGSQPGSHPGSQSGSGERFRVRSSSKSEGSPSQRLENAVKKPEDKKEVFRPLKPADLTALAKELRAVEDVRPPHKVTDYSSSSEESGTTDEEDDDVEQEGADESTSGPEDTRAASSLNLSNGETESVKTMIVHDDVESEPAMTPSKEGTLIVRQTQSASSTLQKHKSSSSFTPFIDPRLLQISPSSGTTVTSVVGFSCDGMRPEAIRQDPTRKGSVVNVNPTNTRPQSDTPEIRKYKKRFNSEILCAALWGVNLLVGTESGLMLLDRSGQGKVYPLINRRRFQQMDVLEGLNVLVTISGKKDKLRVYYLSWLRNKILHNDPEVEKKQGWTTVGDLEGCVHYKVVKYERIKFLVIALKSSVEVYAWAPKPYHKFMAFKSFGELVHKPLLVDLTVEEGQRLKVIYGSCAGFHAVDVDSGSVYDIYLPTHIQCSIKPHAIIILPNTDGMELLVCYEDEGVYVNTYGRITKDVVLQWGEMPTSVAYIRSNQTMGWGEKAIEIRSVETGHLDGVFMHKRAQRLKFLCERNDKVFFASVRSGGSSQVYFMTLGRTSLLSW

Sequence of ROCK2 (O75116 whole entry): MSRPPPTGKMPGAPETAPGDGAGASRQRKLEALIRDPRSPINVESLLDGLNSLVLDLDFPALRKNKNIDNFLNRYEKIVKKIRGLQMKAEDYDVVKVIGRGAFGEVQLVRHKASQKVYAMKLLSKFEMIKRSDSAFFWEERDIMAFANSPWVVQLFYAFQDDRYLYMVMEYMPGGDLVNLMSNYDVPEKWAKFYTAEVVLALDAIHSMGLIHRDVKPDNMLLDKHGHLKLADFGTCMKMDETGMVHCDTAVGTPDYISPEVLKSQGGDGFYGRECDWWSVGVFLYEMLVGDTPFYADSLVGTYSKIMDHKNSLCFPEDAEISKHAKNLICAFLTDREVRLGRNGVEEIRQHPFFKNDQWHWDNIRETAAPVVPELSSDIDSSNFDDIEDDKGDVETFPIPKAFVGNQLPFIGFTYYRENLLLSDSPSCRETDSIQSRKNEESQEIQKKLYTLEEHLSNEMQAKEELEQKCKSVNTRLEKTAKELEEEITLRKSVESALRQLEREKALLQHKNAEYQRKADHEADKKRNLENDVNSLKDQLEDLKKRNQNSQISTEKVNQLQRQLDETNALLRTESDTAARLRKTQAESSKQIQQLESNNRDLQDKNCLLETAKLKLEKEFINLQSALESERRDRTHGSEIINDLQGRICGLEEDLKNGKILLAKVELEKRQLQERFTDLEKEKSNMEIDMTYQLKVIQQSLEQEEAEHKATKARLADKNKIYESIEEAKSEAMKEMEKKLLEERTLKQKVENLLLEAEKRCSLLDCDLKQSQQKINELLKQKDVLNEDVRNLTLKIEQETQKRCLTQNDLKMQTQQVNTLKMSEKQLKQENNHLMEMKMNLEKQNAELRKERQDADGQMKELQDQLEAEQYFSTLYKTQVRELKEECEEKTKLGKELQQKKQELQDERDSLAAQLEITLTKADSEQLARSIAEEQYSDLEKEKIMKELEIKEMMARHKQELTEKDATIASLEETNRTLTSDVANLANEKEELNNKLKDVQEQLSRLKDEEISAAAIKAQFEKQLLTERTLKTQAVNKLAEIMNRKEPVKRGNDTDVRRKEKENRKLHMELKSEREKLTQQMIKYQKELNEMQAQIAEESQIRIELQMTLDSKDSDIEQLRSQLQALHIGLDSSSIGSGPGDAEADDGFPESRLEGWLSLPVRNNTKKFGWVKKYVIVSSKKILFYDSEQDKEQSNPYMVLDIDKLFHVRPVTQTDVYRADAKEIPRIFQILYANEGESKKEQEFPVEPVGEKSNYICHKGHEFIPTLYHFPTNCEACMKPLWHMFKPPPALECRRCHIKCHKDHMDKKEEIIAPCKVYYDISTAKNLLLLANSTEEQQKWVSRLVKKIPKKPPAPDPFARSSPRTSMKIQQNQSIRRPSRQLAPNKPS
Sequence of p38 alpha (MAPK14) (Q16539 whole entry): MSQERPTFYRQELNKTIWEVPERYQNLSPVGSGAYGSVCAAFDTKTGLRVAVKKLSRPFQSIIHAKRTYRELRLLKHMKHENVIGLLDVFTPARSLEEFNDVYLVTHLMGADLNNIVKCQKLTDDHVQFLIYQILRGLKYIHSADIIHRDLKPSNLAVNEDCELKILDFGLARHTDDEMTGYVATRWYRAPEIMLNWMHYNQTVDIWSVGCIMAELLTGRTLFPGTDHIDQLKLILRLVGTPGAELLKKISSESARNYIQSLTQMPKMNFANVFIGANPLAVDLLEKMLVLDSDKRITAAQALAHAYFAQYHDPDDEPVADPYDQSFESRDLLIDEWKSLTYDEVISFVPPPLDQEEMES
Sequence of ROCK1 (Q13464 whole entry): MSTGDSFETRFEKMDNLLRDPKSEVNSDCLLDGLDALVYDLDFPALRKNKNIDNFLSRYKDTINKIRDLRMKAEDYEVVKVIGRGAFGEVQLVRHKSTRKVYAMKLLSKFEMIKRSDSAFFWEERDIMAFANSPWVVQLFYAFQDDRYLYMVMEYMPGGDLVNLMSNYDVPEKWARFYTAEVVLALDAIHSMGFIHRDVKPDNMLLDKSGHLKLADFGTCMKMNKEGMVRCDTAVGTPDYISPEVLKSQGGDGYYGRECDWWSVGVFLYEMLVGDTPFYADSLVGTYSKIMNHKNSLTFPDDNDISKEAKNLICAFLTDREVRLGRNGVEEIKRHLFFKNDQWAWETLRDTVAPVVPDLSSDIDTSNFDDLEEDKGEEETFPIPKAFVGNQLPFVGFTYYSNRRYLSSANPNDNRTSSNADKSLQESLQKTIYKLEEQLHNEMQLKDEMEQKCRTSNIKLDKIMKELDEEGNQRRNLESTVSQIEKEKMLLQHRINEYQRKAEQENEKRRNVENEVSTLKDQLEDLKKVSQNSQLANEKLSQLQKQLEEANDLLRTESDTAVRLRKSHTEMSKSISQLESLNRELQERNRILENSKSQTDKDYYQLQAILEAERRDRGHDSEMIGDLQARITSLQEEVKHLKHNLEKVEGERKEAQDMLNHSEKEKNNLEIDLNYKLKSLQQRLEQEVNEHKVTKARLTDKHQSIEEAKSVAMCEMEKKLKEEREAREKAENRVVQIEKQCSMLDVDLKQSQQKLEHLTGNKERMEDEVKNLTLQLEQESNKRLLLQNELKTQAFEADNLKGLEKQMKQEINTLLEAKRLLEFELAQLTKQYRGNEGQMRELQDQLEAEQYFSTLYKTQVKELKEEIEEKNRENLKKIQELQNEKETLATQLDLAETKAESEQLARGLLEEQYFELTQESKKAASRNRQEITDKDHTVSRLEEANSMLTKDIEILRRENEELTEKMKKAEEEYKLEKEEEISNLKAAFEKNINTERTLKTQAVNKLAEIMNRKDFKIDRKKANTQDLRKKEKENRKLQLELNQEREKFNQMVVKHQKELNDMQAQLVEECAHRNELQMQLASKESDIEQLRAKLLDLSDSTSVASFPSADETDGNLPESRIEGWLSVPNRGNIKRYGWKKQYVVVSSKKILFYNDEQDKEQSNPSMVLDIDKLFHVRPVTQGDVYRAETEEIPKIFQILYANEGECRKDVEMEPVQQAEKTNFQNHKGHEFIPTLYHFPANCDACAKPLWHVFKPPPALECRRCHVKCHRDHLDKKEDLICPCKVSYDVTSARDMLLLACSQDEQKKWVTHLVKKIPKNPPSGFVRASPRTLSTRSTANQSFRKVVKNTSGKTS

For `C[C@@H](N)[C@H]1CC[C@H](C(=O)Nc2ccncc2)CC1` [Compound Y27632, reference compound], the “growth of confluent GEF16 transformed cells” value [1] is given as “inhibits the growth of confluent GEF16 transformed cells”, the “inhibition of PKC epsilon” value (PKC epsilon) is given as 94% and the “transformed focus formation after treatment, re-seeding and chase” value ([2]; 10 μM for 2-10 days, re-seeded at 2×10^5, 10 day chase without inhibitor) is given as “able to suppress transformed focus formation”. For the same compound, the “formation of GEF16 transformed colonies” value ([2]; 10 μM, 10 days, post confluent cultures) was “suppresses the formation of GEF16 transformed NIH3T3 cell colonies”, the “effect on pre-formed transformed colonies” value ([2]; colonies formed for 10 days, then 10 μM or 20 μM for 3 and 6 days) was “very little effect on pre-formed transformed colonies; also recorded: Neither Y27632 nor the other compounds of the invention tested (data not shown) exhibited this property” and the “effect on single colony derived GEF16 transformed cells grown in the absence of non-transformed cells” value [3] was “little or no effect”.
For `C[S+]([O-])c1ccc(-c2nc(-c3ccncc3)c(-c3ccc(F)cc3)[nH]2)cc1` (stereo not shown) [SB203580, reference compound], the “activity against GEF16 transformed colonies” value ([2]; further studies by the inventors) was “some activity against GEF16 transformed colonies although this was much less than the compound of the invention YA1”.
With `CN(C(=O)c1ccc(CNC(=O)OC(C)(C)C)cc1)c1ccncc1` [YA4, 4-(N-Methyl-N-pyridin-4-ylcarbamoyl)benzylcarbamic acid tert-butyl ester] the “activity against ROCK2” value (ROCK2) was “less activity against ROCKs than YA2”, the “activity against p38” value (p38 alpha (MAPK14)) was “significant activity against p38, HGK and Aurora A” and the “ROCK inhibitory activity compared to Y27632” value (recombinant ROCK) was “lower ROCK inhibitory activity; also recorded: significantly less activity against ROCK than did their structural analogue Y27632”. The “activity against Aurora A” value (Aurora A) was “significant activity against p38, HGK and Aurora A”, the “activity against ROCK1” value (ROCK1) was “less activity against ROCKs than YA2” and the “activity against HGK” value (HGK (MAP4K4)) was “significant activity against p38, HGK and Aurora A”.
